Measurements: patent publication US12187728B2 (Raze Therapeutics, Inc., priority 2015, dated 2025)

Target: T1, Human MTHFD2 (Homo sapiens, UniProt P13995)
T1 construct: residues 36-350 in Uniport ID P13995; His6 (N); made in house; host or cells: E. coli
T1 sequence (P13995 36-350): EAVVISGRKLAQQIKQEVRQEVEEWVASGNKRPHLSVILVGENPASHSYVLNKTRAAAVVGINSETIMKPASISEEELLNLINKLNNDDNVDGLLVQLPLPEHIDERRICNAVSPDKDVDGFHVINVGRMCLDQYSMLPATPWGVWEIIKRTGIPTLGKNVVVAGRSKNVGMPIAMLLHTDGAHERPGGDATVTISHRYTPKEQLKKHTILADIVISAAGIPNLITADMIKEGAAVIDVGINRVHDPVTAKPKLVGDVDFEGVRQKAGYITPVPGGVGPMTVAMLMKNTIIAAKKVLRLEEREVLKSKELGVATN
Experiment: MTHFD2 Activity Assay (dehydrogenase activity, diaphorase/resazurin coupled fluorescence)
Format: biochemical
Details: inhibitory activity (IC50 and/or binding constant); 0.2 nM MTHFD2, 11 concentrations
Description: Human MTHFD2 (residues 36-350 in Uniport ID P13995) was expressed as an N-terminal His6 tagged protein and purified in E. coli using nickel capture followed by size-exclusion chromatography.
MTHFD2 dehydrogenase activity oxidizes methylene tetrahyrofolate to methenyl-tetrahydrofolate with the concomitant reduction of NAD to NADH. MTHFD2 dehydrogenase activity was followed by coupling the generation of NADH to diaphorase catalyzed […] of resazurin to fluorescent resorufin. Briefly, control (DMSO) or compound was incubated with 0.2 nM MTHFD2 for 15 minutes in 10.5 μl assay buffer containing 100 mM Hepes, pH 8.0, 5 mM MgCl2, 5 mM KH2PO4, 0.05% BSA, 0.01% Tween-20 in a 384 well Griener, low volume, black plate. 10 μl of substrate buffer containing 70 μM CH2-THF, 1 mM NAD^+, 100 μM Resazurin and 0.42 mg/ml diaphorase was then added to initiate the reaction and the reaction plate was incubated for 30 minutes. 5 μl of 250 mM EDTA was then added to each well to stop the reaction and MTHFD2 activity was quantified by measuring resorufin fluorescence emission at 598 nm following excitation at 525 nm. Activity in positive control wells containing the complete reaction mixture and DMSO alone was set to 100% while activity in negative control wells with the complete reaction mix without MTHFD2 was set to 0%. 11 concentrations of each compound were tested and the fluorescent data at each concentration was normalized to the positive and negative controls and represented as % inhibition. Median inhibitory concentration (IC50) was calculated by fitting % inhibition at each concentration to a 4 parameter logistic fit equation using Graphpad Prizm.
The compound numbers correspond to the compound numbers in Table A (i.e., the example numbers).

Compound	IC50 [nM]
CNc1nc2c(c(=O)n(Cc3ccc(Cl)c(Cl)c3)c(=O)n2C)n1C [Example 21, 1-[(3,4-dichlorophenyl)methyl]-3,7-dimethyl-8-(methylamino)-2,3,6,7-tetrahydro-1H-purine-2,6-dione]	1000 to 5000
Cn1c(Nc2cccc(CC(=O)O)c2)nc2c1c(=O)n(Cc1cc3c(Cl)cccc3[nH]1)c(=O)n2C [Example 339, 2-(3-((1-((4-chloro-1H-indol-2-yl)methyl)-3,7-dimethyl-2,6-dioxo-2,3,6,7-tetrahydro-1H-purin-8-yl)amino)phenyl)acetic acid]	10 to 1000
Cc1cccc2[nH]c(Cn3c(=O)c4c(nc(NC5CCCC(C(=O)O)C5)n4C)n(C)c3=O)cc12 (stereo not shown) [Example 342, 3-(3,7-dimethyl-1-((4-methyl-1H-indol-2-yl)methyl)-2,6-dioxo-2,3,6,7-tetrahydro-1H-purin-8-ylamino)cyclohexanecarboxylic acid]	10 to 1000
COc1ccc2[nH]c(Cn3c(=O)c4c(nc(N)n4C)n(C)c3=O)cc2c1 [Example 243, 8-amino-1-((5-methoxy-1H-indol-2-yl)methyl)-3,7-dimethyl-1H-purine-2,6(3H,7H)-dione]	> 10000
Cn1c(N[C@H]2CC[C@H](CO)C2)nc2c1c(=O)n(Cc1ccc(Cl)c(Cl)c1)c(=O)n2C (racemic) [Example 325, (±)-1-(3,4-dichlorobenzyl)-8-((trans)-3-(hydroxymethyl)cyclopentylamino)-3,7-dimethyl-1H-purine-2,6(3H,7H)-dione]	10 to 1000
COC(=O)c1nc2c(c(=O)n(Cc3ccc(Cl)c(Cl)c3)c(=O)n2C)n1C [Example 161, Methyl 1-(3,4-dichlorobenzyl)-3,7-dimethyl-2,6-dioxo-2,3,6,7-tetrahydro-1H-purine-8-carboxylate]	1000 to 5000
CCOC(=O)Cn1c(=O)n(Cc2ccc(Cl)c(Cl)c2)c(=O)c2c1nc(NCCCO)n2C [Example 98, Ethyl 2-(1-(3,4-dichlorobenzyl)-8-((3-hydroxypropyl)amino)-7-methyl-2,6-dioxo-1,2,6,7-tetrahydro-3H-purin-3-yl)acetate]	5000 to 10000
Cn1c(=O)n(Cc2ccc(Cl)c(Cl)c2)c(=O)c2[nH]c(NCCCO)nc21 [Example 90, 1-[(3,4-dichlorophenyl)methyl]-8-[(3-hydroxypropyl)amino]-3-methyl-2,3,6,7-tetrahydro-1H-purine-2,6-dione]	1000 to 5000
Cn1c(NC2(CO)CCCC2)nc2c1c(=O)n(Cc1ccc(C(F)(F)F)cc1)c(=O)n2C [Example 128, 8-(1-(hydroxymethyl)cyclopentylamino)-3,7-dimethyl-1-(4-(trifluoromethyl)benzyl)-1H-purine-2,6(3H,7H)-dione]	> 10000
Cn1c(NC2CCC(C)(O)C2)nc2c1c(=O)n(Cc1ccc(Cl)c(Cl)c1)c(=O)n2C (racemic) [Example 164, 1-[(3,4-dichlorophenyl)methyl]-8-[(3-hydroxy-3-methylcyclopentyl)amino]-3,7-dimethyl-2,3,6,7-tetrahydro-1H-purine-2,6-dione]	10 to 1000

Now from value to compound:

IC50 [nM]	Compound
> 10000	Cn1c(N[C@H]2CC[C@@H](O)C2)nc2c1c(=O)n(Cc1cc(-c3ccccc3)n[nH]1)c(=O)n2C (racemic) [Example 180, (±)-8-((cis)-3-hydroxycyclopentylamino)-3,7-dimethyl-1-((3-phenyl-1H-pyrazol-5-yl)methyl)-1H-purine-2,6(3H,7H)-dione]
1000 to 5000	Cn1c(N[C@H]2CC[C@@H](O)C2)nc2c1c(=O)n(Cc1ccc(C(F)(F)F)cc1)c(=O)n2C (single isomer, unassigned) [Example 156, 8-((1S,3R)-3-hydroxycyclopentylamino)-3,7-dimethyl-1-(4-(trifluoromethyl)benzyl)-1H-purine-2,6(3H,7H)-dione or 8-((1R,3S)-3-hydroxycyclopentylamino)-3,7-dimethyl-1-(4-(trifluoromethyl)benzyl)-1H-purine-2,6(3H,7H)-dione]
10 to 1000	Cn1c(C(N)c2ccncc2)nc2c1c(=O)n(Cc1cc3c(Cl)cccc3[nH]1)c(=O)n2C (stereo not shown) [Example 461, 8-(amino(pyridin-4-yl)methyl)-1-((4-chloro-1H-indol-2-yl)methyl)-3,7-dimethyl-1H-purine-2,6(3H,7H)-dione]
1000 to 5000	Cn1c(CCO)nc2c1c(=O)n(Cc1cc3ccccc3[nH]1)c(=O)n2C [Example 212, 1-((1H-indol-2-yl)methyl)-8-(2-hydroxyethyl)-3,7-dimethyl-1H-purine-2,6(3H,7H)-dione]
5000 to 10000	Cn1c(N)nc2c1c(=O)n(Cc1cc3ccccc3[nH]1)c(=O)n2C [Example 231, 1-((1H-indol-2-yl)methyl)-8-amino-3,7-dimethyl-1H-purine-2,6(3H,7H)-dione]
10 to 1000	Cn1c(Nc2ccnc([C@H]3C[C@@H]3C(=O)O)c2)nc2c1c(=O)n(Cc1ccc(Cl)c(Cl)c1)c(=O)n2C (single isomer, unassigned) [Example 301, (1S,2S)-2-(4-((1-(3,4-dichlorobenzyl)-3,7-dimethyl-2,6-dioxo-2,3,6,7-tetrahydro-1H-purin-8-yl)amino)pyridin-2-yl)cyclopropanecarboxylic acid or (1R,2R)-2-(4-((1-(3,4-dichlorobenzyl)-3,7-dimethyl-2,6-dioxo-2,3,6,7-tetrahydro-1H-purin-8-yl)amino)pyridin-2-yl)cyclopropanecarboxylic acid]
10 to 1000	Cn1c(Nc2ccc(CC(N)=O)cc2)nc2c1c(=O)n(Cc1cc3c(Cl)cccc3[nH]1)c(=O)n2C [Example 431, 2-[4-[[1-[(4-chloro-1H-indol-2-yl)methyl]-3,7-dimethyl-2,6-dioxo-purin-8-yl]amino]phenyl]acetamide]
10 to 1000	Cn1c(N[C@H]2CCC(=O)NC2)nc2c1c(=O)n(Cc1ccc(Cl)c(Cl)c1)c(=O)n2C (single isomer, unassigned) [Example 82, (S)-1-(3,4-dichlorobenzyl)-3,7-dimethyl-8-(6-oxopiperidin-3-ylamino)-1H-purine-2,6(3H,7H)-dione or (R)-1-(3,4-dichlorobenzyl)-3,7-dimethyl-8-(6-oxopiperidin-3-ylamino)-1H-purine-2,6(3H,7H)-dione]
10 to 1000	Cn1c(N[C@@H]2CCC[C@@H]2O)nc2c1c(=O)n(Cc1cc3c(Cl)cccc3[nH]1)c(=O)n2C [Example 359]
1000 to 5000	Cc1ccc2[nH]c(Cn3c(=O)c4c(nc(CCN5CCOCC5)n4C)n(C)c3=O)cc2c1 [Example 227, 3,7-dimethyl-1-((5-methyl-1H-indol-2-yl)methyl)-8-(2-morpholinoethyl)-1H-purine-2,6(3H,7H)-dione]
10 to 1000	Cn1c(Nc2ncc[nH]2)nc2c1c(=O)n(Cc1cc3c(Cl)cccc3[nH]1)c(=O)n2C [Example 356, 1-[(4-chloro-1H-indol-2-yl)methyl]-8-(1H-imidazol-2-ylamino)-3,7-dimethyl-purine-2,6-dione]
10 to 1000	Cn1c(Nc2ccnc(CNC(=O)CN)n2)nc2c1c(=O)n(Cc1cc3c(Cl)cccc3[nH]1)c(=O)n2C [Example 440, 2-amino-N-((4-(1((4-chloro-1H-indol-2-yl)methyl)-3,7-dimethyl-2,6-dioxo-2,3,6,7-tetrahydro-1H-purin-8-ylamino)pyrimidin-2-yl)methyl)acetamide]
10 to 1000	Cn1c(Nc2ccnc([C@@H]3C[C@H]3C(=O)O)c2)nc2c1c(=O)n(Cc1ccc(Cl)c(Cl)c1)c(=O)n2C (single isomer, unassigned) [Example 300, (1R,2R)-2-(4-((1-(3,4-dichlorobenzyl)-3,7-dimethyl-2,6-dioxo-2,3,6,7-tetrahydro-1H-purin-8-yl)amino)pyridin-2-yl)cyclopropanecarboxylic acid or (1S,2S)-2-(4-((1-(3,4-dichlorobenzyl)-3,7-dimethyl-2,6-dioxo-2,3,6,7-tetrahydro-1H-purin-8-yl)amino)pyridin-2-yl)cyclopropanecarboxylic acid]
10 to 1000	Cn1c(NC2CCC(CO)C2)nc2c1c(=O)n(Cc1ccc(Cl)c(Cl)c1)c(=O)n2C (stereo not shown) [Example 255, 1-(3,4-dichlorobenzyl)-8-(3-(hydroxymethyl)cyclopentylamino)-3,7-dimethyl-1H-purine-2,6(3H,7H)-dione]
10 to 1000	Cn1c(Cn2c(=O)c3c(nc(-n4nccc4N)n3C)n(C)c2=O)cc2cc(Cl)ccc21 [Example 220, 8-(5-amino-1H-pyrazol-1-yl)-1-((5-chloro-1-methyl-1H-indol-2-yl)methyl)-3,7-dimethyl-1H-purine-2,6(3H,7H)-dione]
